Data on 26 compounds can be found in patent US10077277B2, “Bicyclic heteroarylaminoalkyl phenyl derivatives as PI3K inhibitors” (Incyte Corporation, priority 2014, dated 2018).

Holding throughout (format): biochemical
For assay [1], the target named is PI3Kδ (p110δ/p85α) (Homo sapiens (Human), UniProt O00329). Put plainly: PI3Kδ scintillation proximity assay (Example A3). The conditions noted are these: Assay A3, 20 μM ATP. An excerpt: Example A3: PI3Kδ Scintillation Proximity Assay
[γ-^33P]ATP (10 mCi/mL) was purchased from PerkinElmer (Waltham, Mass.). Lipid kinase substrate, D-myo-Phosphatidylinositol 4,5-bisphosphate (PtdIns(4,5)P2)D (+)-sn-1,2-di-O-octanoylglyceryl, 3-O-phospho linked (PIP2), CAS 204858-53-7, was purchased from Echelon Biosciences (Salt Lake City, Utah). PI3Kδ (p110δ/p85α) was purchased from Millipore (Bedford, Mass.). ATP, MgCl2, DTT, EDTA, MOPS and CHAPS were purchased from SigmaAldrich (St. Louis, Mo.). Wheat Germ Agglutinin (WGA) YSi SPA Scintillation Beads was purchased from GE healthcare life sciences (Piscataway, N.J.).
The kinase reaction was conducted in polystyrene 384-well matrix white plate from Thermo Fisher Scientific in a final volume of 25 μL. Inhibitors were first diluted serially in DMSO and added to the plate wells before the addition of other reaction components. The final concentration of DMSO in the assay was 0.5%. The PI3K assays were carried out at room temperature in 20 mM MOPS, pH 6.7, 10 mM MgCl2, 5 mM DTT and CHAPS 0.03%. Reactions were initiated by the addition of ATP, the final reaction mixture consisted of 20 μM PIP2, 20 μM ATP, 0.2 μCi [γ-^33P] ATP, 4 nM PI3Kδ. Reactions were incubated for 210 min and terminated by the addition of 40 μL SPA beads suspended in quench buffer: 150 mM potassium phosphate pH 8.0, 20% glycerol. 25 mM EDTA, 400 μM ATP. The final concentration of SPA beads was 1.0 mg/mL. After the plate sealing, plates were shaken overnight at room temperature and centrifuged at 1800 rpm for 10 minutes, the radioactivity of the product was determined by scintillation counting on Topcount (PerkinElmer). IC50 determination was performed by fitting the curve of percent control activity versus the log of the inhibitor concentration using the GraphPad Prism 3.0 software. IC50 data for the Examples is presented in Table 2 as determined by Assay A3.

Assay [2] concerns the target human JAK2 (Homo sapiens (Human), UniProt O60674). Put plainly: In vitro JAK kinase assay (Example J), JAK2. The note with it: ratio of IC50s, Assay J at 1 mM ATP.
The target in assay [3] is human JAK1 (Homo sapiens, UniProt P23458). Description: In vitro JAK kinase assay (Example J), JAK1. The conditions noted are these: Assay J at 1 mM ATP.

Structures can show the parent of a compound that is named as a salt.

human JAK2, sequence (O60674 828-1132): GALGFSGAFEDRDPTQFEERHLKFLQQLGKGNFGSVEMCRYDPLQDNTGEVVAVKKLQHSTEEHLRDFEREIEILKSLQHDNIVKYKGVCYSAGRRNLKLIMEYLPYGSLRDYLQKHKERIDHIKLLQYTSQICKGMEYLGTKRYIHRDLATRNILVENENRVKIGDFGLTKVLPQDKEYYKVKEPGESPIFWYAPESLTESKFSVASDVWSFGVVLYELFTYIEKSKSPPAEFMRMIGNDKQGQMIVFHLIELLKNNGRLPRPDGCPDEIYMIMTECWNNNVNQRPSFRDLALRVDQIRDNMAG
PI3Kδ (p110δ/p85α), sequence (O00329 whole entry): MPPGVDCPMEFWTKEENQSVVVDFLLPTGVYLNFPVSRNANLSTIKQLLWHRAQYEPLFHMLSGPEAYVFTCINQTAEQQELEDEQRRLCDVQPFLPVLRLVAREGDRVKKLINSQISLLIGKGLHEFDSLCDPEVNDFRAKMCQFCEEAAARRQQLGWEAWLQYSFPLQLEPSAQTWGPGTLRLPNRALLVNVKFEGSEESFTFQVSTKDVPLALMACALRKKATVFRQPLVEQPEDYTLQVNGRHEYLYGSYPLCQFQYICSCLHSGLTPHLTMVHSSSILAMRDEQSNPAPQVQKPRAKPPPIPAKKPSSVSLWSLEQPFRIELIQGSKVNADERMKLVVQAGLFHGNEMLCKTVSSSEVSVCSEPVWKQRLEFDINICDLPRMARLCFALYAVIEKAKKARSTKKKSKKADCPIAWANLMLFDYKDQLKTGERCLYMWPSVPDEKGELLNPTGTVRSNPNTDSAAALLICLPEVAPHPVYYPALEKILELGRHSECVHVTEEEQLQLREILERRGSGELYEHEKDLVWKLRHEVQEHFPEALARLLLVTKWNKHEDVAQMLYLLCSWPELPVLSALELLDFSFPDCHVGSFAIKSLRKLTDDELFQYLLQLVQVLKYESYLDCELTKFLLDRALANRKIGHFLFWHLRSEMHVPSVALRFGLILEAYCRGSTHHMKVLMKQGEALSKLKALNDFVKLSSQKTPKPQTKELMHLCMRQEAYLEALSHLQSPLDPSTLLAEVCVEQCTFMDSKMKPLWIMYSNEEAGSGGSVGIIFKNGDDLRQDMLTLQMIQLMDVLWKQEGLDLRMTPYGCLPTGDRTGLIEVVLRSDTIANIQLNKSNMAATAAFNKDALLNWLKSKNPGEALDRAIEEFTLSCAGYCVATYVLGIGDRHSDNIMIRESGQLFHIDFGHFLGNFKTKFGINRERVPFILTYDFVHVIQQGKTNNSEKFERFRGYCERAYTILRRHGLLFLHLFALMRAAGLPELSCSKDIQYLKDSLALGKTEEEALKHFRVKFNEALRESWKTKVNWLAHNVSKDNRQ
PI3Kδ (p110δ/p85α), sequence (P27986 whole entry partner): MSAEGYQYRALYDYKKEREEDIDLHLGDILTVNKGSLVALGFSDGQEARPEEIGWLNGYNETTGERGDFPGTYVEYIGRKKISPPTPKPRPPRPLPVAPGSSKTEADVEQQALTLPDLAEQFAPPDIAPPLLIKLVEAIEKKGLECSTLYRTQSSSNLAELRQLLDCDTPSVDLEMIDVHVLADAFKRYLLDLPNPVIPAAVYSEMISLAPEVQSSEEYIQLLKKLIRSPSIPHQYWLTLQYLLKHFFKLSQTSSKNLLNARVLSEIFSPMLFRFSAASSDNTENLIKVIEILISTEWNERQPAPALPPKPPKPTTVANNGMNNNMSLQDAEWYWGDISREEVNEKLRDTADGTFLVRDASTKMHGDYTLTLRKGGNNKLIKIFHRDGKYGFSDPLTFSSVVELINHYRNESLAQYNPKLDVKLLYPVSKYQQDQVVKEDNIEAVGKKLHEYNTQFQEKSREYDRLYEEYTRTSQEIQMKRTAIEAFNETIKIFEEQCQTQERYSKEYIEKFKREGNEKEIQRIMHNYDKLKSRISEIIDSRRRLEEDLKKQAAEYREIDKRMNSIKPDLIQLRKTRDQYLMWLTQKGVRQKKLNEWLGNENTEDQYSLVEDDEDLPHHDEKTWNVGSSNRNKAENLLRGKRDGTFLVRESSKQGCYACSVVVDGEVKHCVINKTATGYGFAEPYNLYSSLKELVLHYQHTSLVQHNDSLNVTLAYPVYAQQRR

Consider `CCOc1c(C(C)Nc2ncnc3scnc23)cc(Cl)c(F)c1C1CNC(=O)C1` (single isomer, unassigned) [Example 1B, 4-{3-chloro-6-ethoxy-2-fluoro-5-[1-([1,3]thiazolo[5,4-d]pyrimidin-7-ylamino)ethyl]phenyl}pyrrolidin-2-one], for which the IC50 (as a rule, the point on the concentration scale where inhibition reaches its midpoint) in assay [1] lay in the range of 100 to 400 nM. As for `N#CCC1(n2cc(-c3ncnc4[nH]ccc34)cn2)CN(C2CCN(C(=O)c3ccnc(C(F)(F)F)n3)CC2)C1` [Example 9, [3-[4-(7H-pyrrolo[2,3-d]pyrimidin-4-yl)-1H-pyrazol-1-yl]-1-(1-{[2-(trifluoromethyl)pyrimidin-4-yl]carbonyl}piperidin-4-yl)azetidin-3-yl]acetonitrile], the JAK2/JAK1 in assay [2] is above 10. This compound registered an IC50 in assay [3] below 10 nM. The matching figures for `N#CCC(C1CCN(c2cccc(Cl)n2)C1)n1cc(-c2ncnc3[nH]ccc23)cn1` (stereo not shown) [bis(trifluoroacetate)]: above 10 and below 10 nM. The matching figures for `CC(C)(O)c1cc(O[C@H]2CC[C@@H](N3CC(CC#N)(n4cc(-c5ncnc6[nH]ccc56)cn4)C3)CC2)nc(C(F)(F)F)c1` [Example 20, {1-(cis-4-{[4-(1-hydroxy-1-methylethyl)-6-(trifluoromethyl)pyridin-2-yl]oxy}cyclohexyl)-3-[4-(7H-pyrrolo[2,3-d]pyrimidin-4-yl)-1H-pyrazol-1-yl]azetidin-3-yl}acetonitrile]: above 10 and below 10 nM. In the case of `CCNCc1cc(O[C@H]2CC[C@@H](N3CC(CC#N)(n4cc(-c5ncnc6[nH]ccc56)cn4)C3)CC2)nc(C(F)(F)F)c1` [Example 19, {1-(cis-4-{[4-[(ethylamino)methyl]-6-(trifluoromethyl)pyridin-2-yl]oxy}cyclohexyl)-3-[4-(7H-pyrrolo[2,3-d]pyrimidin-4-yl)-1H-pyrazol-1-yl]azetidin-3-yl}acetonitrile], the JAK2/JAK1 in assay [2] is recorded as above 10. Further, the IC50 in assay [3] is below 10 nM. The matching figures for `N#CCC1(n2cc(-c3ncnc4[nH]ccc34)cn2)CN(C2CCN(C(=O)c3ccnc(C(F)(F)F)c3F)CC2)C1` [Example 7, {1-{1-[3-Fluoro-2-(trifluoromethyl)isonicotinoyl]piperidin-4-yl}-3-[4-(7H-pyrrolo[2,3-d]pyrimidin-4-yl)-1H-pyrazol-1-yl]azetidin-3-yl}acetonitrile]: above 10 and below 10 nM. With `N#CCC1(n2cc(-c3ncnc4[nH]ccc34)cn2)CN(C2CCN(C(=O)Nc3ccc(F)cc3C(F)(F)F)CC2)C1` [Example 8, 4-{3-(Cyanomethyl)-3-[4-(7H-pyrrolo[2,3-d]pyrimidin-4-yl)-1H-pyrazol-1-yl]azetidin-1-yl}-N-[4-fluoro-2-(trifluoromethyl)phenyl]piperidine-1-carboxamide], the JAK2/JAK1 in assay [2] is listed as above 10. In assay [3], this compound displayed an IC50 below 10 nM. `CCOc1c(C(C)Nc2ncnc3cccnc23)cc(Cl)c(F)c1C1CNC(=O)C1` (stereo not shown) [Example 2, 4-{3-Chloro-6-ethoxy-2-fluoro-5-[1-(pyrido[3,2-d]pyrimidin-4-ylamino)ethyl]phenyl}pyrrolidin-2-one] returned an IC50 in assay [1] of at most 100 nM. Consider `N#CCC1(n2cc(-c3ncnc4[nH]ccc34)cn2)CN([C@H]2CC[C@@H](Oc3cc(CN4CC[C@H](O)C4)cc(C(F)(F)F)n3)CC2)C1` [Example 22, {1-(cis-4-{[4-{[(3S)-3-hydroxypyrrolidin-1-yl]methyl}-6-(trifluoromethyl)pyridin-2-yl]oxy}cyclohexyl)-3-[4-(7H-pyrrolo[2,3-d]pyrimidin-4-yl)-1H-pyrazol-1-yl]azetidin-3-yl}acetonitrile], for which the JAK2/JAK1 in assay [2] is recorded as above 10. In assay [3], this compound showed a 50% inhibitory concentration (IC50) below 10 nM. In the case of `CCOc1c(C(C)Nc2ncnc3scnc23)cc(Cl)c(F)c1C1CNC(=O)C1` (stereo not shown) [Example 1, 4-{3-Chloro-6-ethoxy-2-fluoro-5-[1-([1,3]thiazolo[5,4-d]pyrimidin-7-ylamino)ethyl]phenyl}pyrrolidin-2-one trifluoroacetate], the JAK2/JAK1 in assay [2] is given as above 10. For the same compound, in assay [1], the IC50 was at most 100 nM. Regarding `N#CC[C@]1(n2cc(-c3ncnc4[nH]ccc34)cn2)C[C@H](N2CCC(Oc3cc(CCO)cc(C(F)(F)F)n3)CC2)C1` [Example 26], the JAK2/JAK1 in assay [2] is given as above 10. The IC50 in assay [3] is below 10 nM. As to `N#CCC1(n2cc(-c3ncnc4[nH]ccc34)cn2)CN([C@H]2CC[C@@H](Oc3cc(CCO)nc(C(F)(F)F)n3)CC2)C1` [Example 18, {1-(cis-4-{[6-(2-hydroxyethyl)-2-(trifluoromethyl)pyrimidin-4-yl]oxy}cyclohexyl)-3-[4-(7H-pyrrolo[2,3-d]pyrimidin-4-yl)-1H-pyrazol-1-yl]azetidin-3-yl}acetonitrile], the JAK2/JAK1 in assay [2] was above 10. In assay [3], this compound returned an IC50 below 10 nM. Consider `C[C@@H](CO)NCc1cc(OC2CCN([C@H]3C[C@](CC#N)(n4cc(-c5ncnc6[nH]ccc56)cn4)C3)CC2)nc(C(F)(F)F)c1` [Example 23], for which, in assay [2], the JAK2/JAK1 is above 10. In assay [3], this compound yielded an IC50 below 10 nM. Compound `CCOc1c(C(C)Nc2ncnc3scnc23)cc(Cl)c(F)c1C1CNC(=O)C1` (single isomer, unassigned) [Example 1D, 4-{3-chloro-6-ethoxy-2-fluoro-5-[1-([1,3]thiazolo[5,4-d]pyrimidin-7-ylamino)ethyl]phenyl}pyrrolidin-2-one] gave an IC50 in assay [1] of 100 to 400 nM. `C[C@H](O)CNCc1cc(OC2CCN([C@H]3C[C@](CC#N)(n4cc(-c5ncnc6[nH]ccc56)cn4)C3)CC2)nc(C(F)(F)F)c1` [Example 25]: the JAK2/JAK1 in assay [2] is above 10. This compound came in with an IC50 in assay [3] below 10 nM.

As for `CCOc1c([C@@H](C)Nc2ncnc3cccnc23)cc(Cl)c(F)c1[C@@H]1CNC(=O)C1` (single isomer, unassigned) [Example 2B, 4-{3-chloro-6-ethoxy-2-fluoro-5-[1-(pyrido[3,2-d]pyrimidin-4-ylamino)ethyl]phenyl}pyrrolidin-2-one], the IC50 in assay [1] fell in the range of 100 to 400 nM.

Take `N#CCC(CN1CCN(C(=O)c2ccc(C#N)cc2F)CC1)n1cc(-c2ncnc3[nH]ccc23)cn1` (stereo not shown) [Example 5]: the JAK2/JAK1 in assay [2] is on record as above 10. For the same compound, the IC50 in assay [3] is below 10 nM.

As for `C[C@@H](O)CNCc1cc(OC2CCN([C@H]3C[C@](CC#N)(n4cc(-c5ncnc6[nH]ccc56)cn4)C3)CC2)nc(C(F)(F)F)c1` [Example 24], in assay [2], the JAK2/JAK1 is above 10. The same compound displayed an IC50 in assay [3] below 10 nM.

For the compound `N#CC[C@]1(n2cc(-c3ncnc4[nH]ccc34)cn2)C[C@H](N2CCC(Oc3cc(CN4CCC[C@@H]4CO)cc(C(F)(F)F)n3)CC2)C1` [Example 13], in assay [2], the JAK2/JAK1 is above 10. Also, in assay [3], the IC50 is below 10 nM.

Take `N#CCC(CN1CCN(C(=O)c2ccc(C#N)cc2F)CC1)n1cc(-c2ncnc3[nH]ccc23)cn1` (stereo not shown) [Example 6]: the JAK2/JAK1 in assay [2] is above 10.

For the compound `N#CC[C@]1(n2cc(-c3ncnc4[nH]ccc34)cn2)C[C@H](N2CCN(C(=O)c3ccnc(C(F)(F)F)n3)CC2)C1` [Example 10], the JAK2/JAK1 in assay [2] is reported as above 10. This compound showed an IC50 in assay [3] below 10 nM.

Regarding `C[C@H](NC(=O)c1cc(F)c(N2CC(CC#N)(n3cc(-c4ncnc5[nH]ccc45)cn3)C2)cc1F)C(F)(F)F` [Example 16], in assay [2], the JAK2/JAK1 is above 10. Further, in assay [3], the IC50 was below 10 nM.

For `N#CCC1(n2cc(-c3ncnc4[nH]ccc34)cn2)CN([C@H]2CC[C@@H](Oc3cc(CN4CC[C@@H](O)C4)cc(C(F)(F)F)n3)CC2)C1` [Example 21], the JAK2/JAK1 in assay [2] is reported as above 10. The compound also yielded an IC50 in assay [3] below 10 nM. In the case of `N#CC[C@]1(n2cc(-c3ncnc4[nH]ccc34)cn2)C[C@H](N2CCC(Oc3cc(CN4CC(O)C4)cc(C(F)(F)F)n3)CC2)C1` [Example 11], the JAK2/JAK1 in assay [2] was above 10. Besides, in assay [3], the IC50 was below 10 nM. In assay [1], `CCOc1c([C@@H](C)Nc2ncnc3cccnc23)cc(Cl)c(F)c1[C@@H]1CNC(=O)C1` (single isomer, unassigned) [Example 2D, 4-{3-chloro-6-ethoxy-2-fluoro-5-[1-(pyrido[3,2-d]pyrimidin-4-ylamino)ethyl]phenyl}pyrrolidin-2-one] yielded an IC50 of 100 to 400 nM.

For `N#CC[C@]1(n2cc(-c3ncnc4[nH]ccc34)cn2)C[C@H](N2CCC(Oc3cc(CN4CCC[C@H]4CO)cc(C(F)(F)F)n3)CC2)C1` [Example 12], the JAK2/JAK1 in assay [2] is above 10. The compound further gave an IC50 in assay [3] below 10 nM.
